Reference: ChEMBL document CHEMBL1158188, “Natural polyphenols (vegetable tannins) as drugs: possible modes of action” (J Nat Prod, 1996)

What was measured:
[1] = Binding affinity to bradykinin
[2] = Binding affinity to desarginyl(1)bradykinin
[3] = Binding affinity to bradykinin peptide Arg-Pro-Pro-Gly-Phe
[4] = Binding affinity to desarginyl(9)bradykinin
[5] = Antioxidant activity assessed by hydroxyl radical scavenging assay; format: functional
[6] = Antioxidant activity assessed by superoxide anion scavenging assay; format: functional
[7] = Antioxidant activity assessed by singlet oxygen scavenging assay; format: functional
[8] = Octanol-water partition coefficient of the compound; format: physicochemical; conditions: read-out: log KOW

SMILES | Ka [1] | IC50 [5] | IC50 [6] | IC50 [7] | other results
O=C(OC[C@H]1O[C@@H](OC(=O)c2cc(O)c(O)c(O)c2)[C@H](O)[C@@H](OC(=O)c2cc(O)c(O)c(O)c2)[C@@H]1O)c1cc(O)c(O)c(O)c1 | 4.4 M⁻¹ |  |  |  | 
O=C(OC[C@H]1O[C@@H](OC(=O)c2cc(O)c(O)c(O)c2)[C@H](OC(=O)c2cc(O)c(O)c(O)c2)[C@@H](O)[C@@H]1OC(=O)c1cc(O)c(O)c(O)c1)c1cc(O)c(O)c(O)c1 | 20.5 M⁻¹ |  |  |  | 
O=C(OC[C@H]1O[C@@H](OC(=O)c2cc(O)c(O)c(O)c2)[C@H](OC(=O)c2cc(O)c(O)c(O)c2)[C@@H](OC(=O)c2cc(O)c(O)c(O)c2)[C@@H]1OC(=O)c1cc(O)c(O)c(O)c1)c1cc(O)c(O)c(O)c1 | 33.7 M⁻¹ |  |  |  | Ka [2]: 20 M⁻¹; Ka [3]: 13 M⁻¹; Ka [4]: 20.4 M⁻¹
Oc1cc(O)c2c(c1)O[C@H](c1ccc(O)c(O)c1)[C@H](O)[C@H]2c1c(O)cc(O)c2c1O[C@H](c1ccc(O)c(O)c1)[C@H](O)C2 | 8.2 M⁻¹ |  |  |  | 
O=C1O[C@H]([C@@H](O)CO)C(O)=C1O [ASCORBIC ACID] |  | 18.8 µM | 23.3 µM | 120 µM | 
O=C1OC[C@H]2OC(=O)c3cc(O)c(O)c(O)c3-c3c(O)c(O)c(O)c4c3C(=O)O[C@H]([C@H]3OC(=O)c5c-4c(O)c(O)c(O)c5[C@H]3O)[C@@H]2OC(=O)c2cc(O)c(O)c(O)c2-c2c1cc(O)c(O)c2O [CASTALAGIN] |  |  |  |  | logP [8]: 0.1
O=C(O)c1cc(O)c(O)c(O)c1 [GALLIC ACID] |  | 78 µM | 1.01 µM | 69.8 µM | 
O=C(OC[C@@H]1OC(O)[C@](O)(COC(=O)c2cc(O)c(O)c(O)c2)[C@H]1O)c1cc(O)c(O)c(O)c1 (stereo partly specified) [HAMAMELITANIN] |  | 5.46 µM | 1.31 µM | 45.5 µM | 
CCCOC(=O)c1cc(O)c(O)c(O)c1 [PROPYL GALLATE] |  | 86.5 µM | 1.41 µM | 66.7 µM | 
O=C1OCC2OC(=O)c3cc(O)c(O)c(O)c3-c3c(O)c(O)c(O)c4c3C(=O)OC(C2OC(=O)c2cc(O)c(O)c(O)c2-c2c1cc(O)c(O)c2O)C1OC(=O)c2c-4c(O)c(O)c(O)c2C1O (stereo unspecified) [VESCALAGIN] |  |  |  |  | logP [8]: 0.1
